In US5166379A, “Synthesis of compounds with biological activity, and methods of use” (Harbor Branch Oceanographic Institution, Inc., priority 1990, dated 1992):
Values after ≈ are worked out from the molar mass of the structure shown. Where two headings read alike, the source gives them in different places.

Key:
[1] = system: murine splenocyte suspensions (BALB/c and C57BL/6J mice); experiment: Mixed Lymphocyte Reaction (MLR); format: cell-based; conditions: for activity at 0.05 µg/mL / activity at 0.2 µg/mL / activity at 0.8 µg/mL / activity at 3.1 µg/mL / activity at 12.5 µg/mL / activity at 50 µg/mL: Mus musculus, Splenocyte, read-out: % MLR (percentage of positive control)
Protocol: I. Mixed Lymphocyte Reaction
1. Murine splenocyte suspensions were prepared separately from BALB/c and C57BL/6J mice. […] The cell concentrations were adjusted to 2.5×10^6 cells/ml. Aliquots of each cell population were removed to separate tubes, and the remaining two cell suspensions combined to one tube.
(§1) 2. Serial, log10 dilutions of the pure compound were made in absolute ethanol, and 10 μl of each dilution was added to wells of microtiter test plates, and allowed to dry.
3. A volume of 0.2 ml of the combined splenocyte suspensions was added to triplicate test wells. Positive control wells received combined splenocyte suspensions in the absence of the test compounds. Negative control wells consisted of separate (not mixed) splenocyte suspensions cultured in the absence of the test compounds.
4. Plates were incubated in 5% CO2 at 37° C. for 86 hours.
5. A volume of 0.05 ml of ^3 H-thymidine (20 μCi/ml) was added to each well, and the plates were incubated in 5% CO2 at 37° C. for an additional 5 hours.
6. The contents of each well of the microtiter plates were harvested onto glass fiber filter strips, and the resulting filter discs placed in scintillation vials to which 2.0 ml of scintillation fluid was added.
7. The amount of incorporated ^3 H-thymidine was determined by counting the vials in a liquid scintillation counter.
8. Triplicate counts were averaged, and the data reported as a percentage of the positive control.

[2] = system: lymphoid cells (murine BALB/c splenocytes); experiment: Lymphocyte Viability Assay (LCV); format: cell-based
Protocol: (§2) II. Lymphocyte Viability Assay
(§3) 1. Compounds were similarly tested in parallel with the MLR to determine their toxic effects on lymphoid cells using the lymphocyte viability assay (LCV).
as §1
(§4) 3. Murine splenocyte suspensions were prepared from BALB/c mice. […] The cell concentrations were adjusted to 2.5×10^6 cells/ml.
(§5) 4. A volume of 0.2 ml of the splenocyte suspension was added to replicate test wells. Positive control wells received splenocyte suspensions in the absence of the test compounds.
(§6) 5. Plates were incubated at 37° C. for 86 hours. At the end of the incubation period, a volume of 75 μl of a 2.0 mg/ml solution of MTT was added to each well, and the plates were returned to the incubator for an additional 5 hours.
(§7) 6. The supernatants from each microwell were then removed, and a volume of 200 μl of isopropanol was added and the contents mixed.
(§8) 7. Values were obtained by comparing the optical densities (determined at 570 and 650 nm) of wells containing the test compounds with those of wells containing cells and medium only (positive control). The results are expressed as a percentage of the positive control.
(§9) 8. Replicate counts were averaged, and the data reported as a percentage of the positive control. An LCV value of less than 60% of the positive control is an indication of cytotoxicity of the test compounds for lymphoid cells.

[3] = system: P388 cells; experiment: Antiproliferative effects against P388 cells (antitumor, MTT); format: cell-based; conditions: for P388 IC50: 48 hour exposure; for IC50: Mus musculus, P388, 48 hour exposure
Protocol: IV. Antitumor Methodology
To assess the antiproliferative effects against P388 cells, 200 μl cultures (96-well tissue culture plates, Nunc, Denmark) were established at 1×10^5 cells/ml in drug-free medium or medium containing the pure compounds/crude extracts at a final dilution or 1:500 and at various concentrations. Solvent for all dilutions was methanol, which was removed from plates under vacuum. All experimental cultures were initiated in media containing Gentamicin sulfate (50 μg/ml; Schering Corporation, Kenilworth, NJ).
To quantitate the effects of pure compounds/crude extracts on cell proliferation, 75 μl of warm growth medium containing 5 mg/ml MTT was added to each well, cultures were returned to the incubator, and were left undisturbed for 90 minutes. To spectrophotometrically quantitate formation of reduced formazan, plates were centrifuged (900×g, 5 minutes), culture fluids removed by aspiration, and 200 μl of acidified isopropanol (2 ml concentrated HCl/liter isopropanol) added per well. The absorbance of the resulting solutions were measured at 570 nm with a plate reader (MR700 Microplate Reader, Dynatech Laboratories, Chantilly, VA).

[4] = Lymphocyte Viability Assay (LCV); format: cell-based, murine; conditions: mouse, splenocytes, read-out: % LCV (percentage of positive control)
Protocol: as §2, §3, §1, §4, §5, §6, §7, §8, §9

Compound	% MLR (percentage of positive control) ([1]; 0.05 μg/ml) [%]	% MLR (percentage of positive control) ([1]; 0.2 μg/ml) [%]	% MLR (percentage of positive control) ([1]; 0.8 μg/ml) [%]	% MLR (percentage of positive control) ([1]; 3.1 μg/ml) [%]	% MLR (percentage of positive control) ([1]; 12.5 μg/ml) [%]	% MLR (percentage of positive control) ([1]; 50 μg/ml) [%]	% LCV (percentage of positive control) ([2]; 0.05 μg/ml) [%]	activity at 0.05 µg/mL ([1]; 0.05 μg/ml) [%]	activity at 0.2 µg/mL ([1]; 0.2 μg/ml) [%]	activity at 0.8 µg/mL ([1]; 0.8 μg/ml) [%]	activity at 3.1 µg/mL ([1]; 3.1 μg/ml) [%]	activity at 12.5 µg/mL ([1]; 12.5 μg/ml) [%]	activity at 50 µg/mL ([1]; 50 μg/ml) [%]	viability ([4]; 0.05 μg/ml) [%]	viability ([4]; 0.2 μg/ml) [%]	viability ([4]; 0.8 μg/ml) [%]	viability ([4]; 3.1 μg/ml) [%]	viability ([4]; 12.5 μg/ml) [%]	viability ([4]; 50 μg/ml) [%]	IC50 [3] [µg/mL]	also measured
C#CC(O)C=CCCCCC (stereo not shown) [CH3 (CH2)4 CH= CH--CHOH--C≡CH]	112	14	82	0	0	0	109	–	–	–	–	–	–	–	–	–	–	–	–	–	% LCV (percentage of positive control) ([2]; 0.2 μg/ml): 121%; % LCV (percentage of positive control) ([2]; 0.8 μg/ml): 119%; % LCV (percentage of positive control) ([2]; 3.1 μg/ml): 89%; % LCV (percentage of positive control) ([2]; 12.5 μg/ml): 65%; % LCV (percentage of positive control) ([2]; 50 μg/ml): 7%; P388 IC50 [3]: 74.0 µg/mL
C#CC(O)C=CCCCCCCCCC (stereo not shown) [CH3 (CH2)8 CH=CH--CHOH--C≡CH]	120	0	0	0	0	0	35	–	–	–	–	–	–	–	–	–	–	–	–	–	% LCV (percentage of positive control) ([2]; 0.2 μg/ml): 44%; % LCV (percentage of positive control) ([2]; 0.8 μg/ml): 30%; % LCV (percentage of positive control) ([2]; 3.1 μg/ml): 26%; % LCV (percentage of positive control) ([2]; 12.5 μg/ml): 5%; % LCV (percentage of positive control) ([2]; 50 μg/ml): 0%; P388 IC50 [3]: 27.0 µg/mL
C#CC(/C=C/CCCCCCCCCCCCCCC)OC(C)=O (stereo not shown) [CH3 (CH2)14 CH=CH--CHOAc--C≡CH]	–	–	–	–	–	–	–	73	0	0	0	0	0	58	53	30	30	23	11	100 (≈ 299 µM)	–
CC#CC(O)/C=C/CCCCCCCCCCCCCCC (stereo not shown) [CH3 (CH2)14 CH=CH--CHOH--C≡C--CH3]	–	–	–	–	–	–	–	137	143	83	0	0	0	154	107	75	86	67	60	200 (≈ 652 µM)	–
CCCCCCCCCCCCCCC/C=C/C(O)C#N (stereo not shown) [CH3 (CH2)14 CH=CH--CHOH--C≡N]	–	–	–	–	–	–	–	60	89	85	80	0	0	132	135	161	144	77	37	28 (≈ 95.4 µM)	–
CCCCCCCCCCCCCCC/C=C/C=O [CH3 (CH2)14 CH=CH--CHO]	–	–	–	–	–	–	–	150	105	135	146	0	0	130	175	181	186	89	5	15.1 (≈ 56.7 µM)	–
C#CC(C)(O)/C=C/CCCCCCCCCCCCCCC (stereo not shown) [CH3 (CH2)14 CH=CH--COH(CH3)--C≡CH]	–	–	–	–	–	–	–	152	161	171	115	65	0	53	107	118	109	54	5	67 (≈ 219 µM)	–
CCCCCCCCCCCCCCCC=O [CH3 (CH2)14 CHO]	–	–	–	–	–	–	–	59	94	80	73	36	0	237	182	161	202	153	132	44 (≈ 183 µM)	–
C#CC(O)CCCCCCCCCCCCCCCCC (stereo not shown) [CH3 (CH2)16 CHOH--C≡CH]	–	–	–	–	–	–	–	0	0	0	0	0	0	61	68	39	56	7	2	48 (≈ 163 µM)	–
C#CC(O)C=CCCCCCCCCCCCCCCCCCCC (stereo not shown) [CH3 (CH2)18 CH=CH--CHOH--C≡CH]	103	103	0	0	0	0	58	–	–	–	–	–	–	–	–	–	–	–	–	–	% LCV (percentage of positive control) ([2]; 0.2 μg/ml): 70%; % LCV (percentage of positive control) ([2]; 0.8 μg/ml): 61%; % LCV (percentage of positive control) ([2]; 3.1 μg/ml): 28%; % LCV (percentage of positive control) ([2]; 12.5 μg/ml): 30%; % LCV (percentage of positive control) ([2]; 50 μg/ml): 39%; P388 IC50 [3]: 219 µg/mL
